# Data from US6770020B2 (priority 2001, dated 2004).
# How the values were obtained:
# [1] = cited from earlier work
# [2] = higher concentrations and prolonged exposure; cited from earlier work
# [3] = tested on: human glioblastoma cells (TB 10); experiment: MEPHISTO x-ray spectromicroscopy, Gd in nucleus vs. cytoplasm; assay type: cell-based; details: 10 mg/ml
# Experimental: 1) For spectromicroscopy experiments, two series of cell cultures from different passages were prepared, in which 5×10^4 cells/cm^2 were plated in 35 mm plastic Petri dishes, each containing 4 to 5 gold-plated stainless steel substrates (5 mm diameter). The Gd exposure concentration was 10 mg/ml and the exposure times were 0 to 72 hours. At the end of the exposure periods, all dishes were carefully washed three times with phosphate buffered saline (PBS) to remove all unbound Gd-DTPA, fixed in 4% paraformaldheyde in PBS for 20 minutes, and then washed in Milii Q water. The samples were then air-dried at room temperature and etched by exposure to UV light from a low-pressure mercury lamp in the presence of ozone. UV/O3 etching selectively removes carbon and nitrogen from the cells without architectural distortion, thereby preserving the micro localization of all other elements.^(18,19) In the present study, etching was employed to reveal the local (i.e., nuclear) concentration of Gd which would otherwise not be detectable with x-ray absorption spectroscopy. The cell cultures were etched for 116 hours, at a distance of 5 mm from the UV lamp.
# Microchemical analysis of the etched cell cultures was performed with the custom-built MEPHISTO (Microscope á Emission de PHotoélectrons par Illumination Synchrotronique de Type Onduleur) X-ray photoelectron emission microscope (X-PEEM), which uses an electron optics system (SpectroMicroTech, Orlando, Fla., USA) to form a magnified image of the photoelectrons emitted by a specimen under soft x-ray illumination. The image magnification is continuously variable up to 8000x, and the optimum lateral resolution is 20 nm^(15). The image pixel intensity (corresponding to total photoelectron yield, per unit area, per unit time) is recorded as a function of photon energy. […] The position and line-shape of spectral features provide element identification and chemical state information. Spectra can be acquired simultaneously from regions selected on the real time image of the sample surface, and the probed depth is on the order of 100 Å. For this work, the MEPHISTO X-PEEM was mounted on the HERMON beamline of the University of Wisconsin-Madison Synchrotron Radiation Center (Stoughton, Wis.).
# MEPHISTO micrographs acquired at a specific photon energy were processed in Adobe Photoshop 5.0 software for Macintosh to enhance the contrast and add a scale bar. […]
# A comparison of ICP-MS and MEPHISTO data, determines the calibration of the MEPHISTO analysis, and therefore quantitative information on the Gd concentration at the microscopic level. […] These factors were derived from the matching of MEPHISTO data from whole cells to the ICP-MS cell-bulk data, so that they quantitatively overlap. […]
# [4] = tested on: human glioblastoma cells (TB 10); experiment: Cell survival after thermal neutron irradiation of Gd-DTPA-exposed cultures; assay type: cell-based; details: for cell death after neutron irradiation: FIG. 5
# Experimental: 5) For neutron bombardment, two series of cell cultures (each one in duplicate) from different passages were plated in plastic “NUNC”-brand flasks (Nalge Nunc International, Rochester, N.Y.) (NUNCLON, 25 cm^2culture area) at a density of 1×10^4 cells/cm^2 and exposed to no Gd-DTPA, 1 mg/ml, 5 mg/ml, or 10 mg/ml GdDTPA, for 72 hours, beginning 24 hours after plating. At the end of the exposure period, the growth media were removed and the flasks filled with Puck's modified saline, in which the cells remained for two hours before neutron bombardment. The cells were then irradiated for one hour under a thermal neutron flux of 3×10^8 n/cm^2s (nominal power 5 kW), at the ENEA's (Ente per le Nuove Tecnologie, L'Energia e L'Ambiente, Rome, Italy) TAPIRO fast Reactor. The fast neutron flux at the center of the irradiation chamber (20 cm^3 cube) was negligible, while the γ average dose was 3.2 Gy/h.^(20) Two hours later, the cells were detached from the plates, and cell survival was measured by cell counting and by the colorimetric MTT assay. The standard deviation of cell counting results on the four culture series was within 10%.
# To verify if the 140 μg/ml of Gd retained by glioblastoma cells in the two- to four-hour washout time was still available as an efficient tumoricidal agent for NCT, the cultures were irradiated for one hour with thermal neutrons.
# The data of FIG. 5 were obtained by direct living cell count and very similar results were obtained by the use of an MTT assay. As presented in FIG. 5, the control cultures (no Gd) were also affected by neutron irradiation, causing 20% of the cells to die. […] The serum-free environment insures that the DNA-repair cellular mechanism is slowed down, resulting (in principle) in decreased survival of the cells in which the Gd neutron capture reaction induced DNA damage. The 20% cell killing observed in cells not exposed to Gd provides an evaluation of the extent of this phenomenon.
# [5] = rats; cited from earlier work
# [6] = tested on: human glioblastoma cells (TB 10); experiment: ICP-MS Gd release/retention after Gd-DTPA wash-out; details: 10 mg/ml 72 hours
# [7] = tested on: human glioblastoma cells (TB 10); experiment: ICP-MS Gd uptake by glioblastoma cell cultures exposed to Gd-DTPA; details: for cellular Gd concentration: 10 mg/ml Gd-DTPA
smiles,measurement,setting,value
"O=C([O-])CN(CCN(CC(=O)[O-])CC(=O)O)CCN(CC(=O)[O-])CC(=O)O.[Gd+3] [Gd-DTPA, gadolinium diethylene triamine pentaacetic acid]",dose eliminated renally,"[1]; 6 hours post-injection in man, average",about 83%
same,dose found in the urine,[1]; 5 days post-injection in man,approximately 91%
same,dose dependence of pharmacokinetics,[1]; humans,independent of the dose
same,half life in the blood,[1]; in vivo,around 30 minutes
same,intravascular hemolysis,[2],"weak, reversible intravascular hemolysis"
same,Ratio: Gd nucleus/Gd cytoplasm,[3]; exposure time 6 hrs,1.6
same,Ratio: Gd nucleus/Gd cytoplasm,[3]; exposure time 24 hrs,2.1
same,Ratio: Gd nucleus/Gd cytoplasm,[3]; exposure time 48 hrs,1.0
same,Ratio: Gd nucleus/Gd cytoplasm,[3]; exposure time 72 hrs,1.3
same,cell death after Gd exposure followed by thermal neutrons,"[4]; 140 μg/ml Gd retained after two hours in physiological solution, 1 hour thermal neutrons",70%
same,cell inactivation by Gd plus thermal neutrons vs. thermal neutrons alone,[4]; 70% vs. 20% killing,3.5 times
same,cell death after neutron irradiation,[4]; exposure 1 mg/ml Gd-DTPA 72 hours,not sufficient to induce consistent cell death
same,cell death after neutron irradiation,[4]; exposure 10 and 5 mg/ml Gd-DTPA 72 hours,evident and reproducible cell death
same,LD50,[5],20 mmol/kg
same,immediate loss of Gd from the cell bodies after wash-out,[6]; FIG. 4,about 80%
same,intracellular retained Gd concentration,[6]; then two to four hours in physiological solution,140 µg/mL
same,cellular Gd concentration,[7]; 120-hour exposure (maximum),600 µg/mL
same,cellular Gd concentration,[7]; after 24 hours,more than 250 μg/ml
same,cellular Gd concentration vs. exposure time,"[7]; 10 mg/ml, up to 120 hours, FIG. 1",increases with the exposure time
same,concentration of uptaken Gd vs. exposure concentration,"[7]; 1 to 25 mg/ml Gd-DTPA, 72 hours, FIG. 3",increases with the exposure concentration
same,maximum cellular concentration relative to the 250 μg/ml recommended for GdNCT,[7]; 120-hour exposure,2.4 times
